This note sets out measurements from paper PMC8486263 (RSC Advances, 2020).

The subject of series [1] is HIV-1 (strain LAI). The series can be described thus: microbe, parasite or virus in culture. The format is cell-based. The note with it: Human immunodeficiency virus 1, PBMC, 144 h; HIV-1 LAI, MOI 0.1, PHA/IL-2 stimulated human PBM cells, 6 days; read-out: anti-HIV-1 EC50.
Protocol: The assay was performed as described previously,[23a,b] with some modifications described elsewhere.[23c] […] Supernatants were harvested, and HIV-1 RT was quantified. Median effective concentrations (EC50) were determined using described method.[23d]
For series [2], the system named is HBV. The series can be described thus: Antiviral assay against HBV in HepAD38 cells, real-time PCR for HBV DNA. The class given is cell-based. The note with it: Hepatitis B virus, 168 h. As to the method: HepAD38 cells[24] were seeded at 50 000 cells per well in collagen-coated 96-well plates. Test compounds or 3TC (control) were added to HepAD38 cells to a final concentration of 10 μM. Real-time PCR for HBV DNA lasted 7 days. On day 7, total DNA was purified from supernatant using commercially available kit (DNeasy 96 Blood & Tissue kit, Qiagen). The HBV DNA was amplified in a real-time PCR assay using LightCycler 480 (Roche) as described elsewhere.[23c] All samples were tested in triplicate. Analysis: the concentration of compound that inhibited HBV DNA replication by 50% (EC50) was determined by linear regression.
(In general: Quantitative PCR measures a nucleic acid by following its amplification.)

Series [3] can be described thus: in vitro. The conditions noted are these: African green monkey. As to the method:
These assays were performed in human PBM, T lymphoblast CEM-CCRF (CEM), African green monkey kidney (Vero) or human liver (HepG2) cells. Results represent means from triplicate wells.
These were performed in […] (PBM), T lymphoblast CEM-CCRF (CEM), African green monkey kidney (Vero) or human liver (HepG2) cells via MTT assay using the CellTiter 96®. Non-Radioactive Cell Proliferation (Promega) kit as previously described.[23c] Cytotoxicity was expressed as the concentration of test compounds that inhibited cell proliferation by 50% (IC50) and calculated using the Chou and Talalay method.[25]

pEC50, pIC50: −log10 of the molar value.

In general, pEC50 refers to −log10 of the EC50, conventionally taken in molar units. With `Cc1cn([C@H]2C[C@H](N=[N+]=[N-])[C@@H](CO)O2)c(=O)[nH]c1=O` [AZT, 3′-azido-3′-deoxythymidine], the pEC50 in series [1] is 8.22. In general, inhibition refers to the share of the control response that was lost under treatment. For `Nc1ccn([C@@H]2CS[C@H](CO)O2)c(=O)n1` [Lamivudine], in series [2] (7 days, HBV DNA in supernatant, read-out: anti-HBV EC50), the pEC50 is more than 5.00. Testing at 10 µM in series [2] (at 10 μM, day 7) gave an inhibition of 97%.

As usually defined, the pIC50 is the negative decadic logarithm of the IC50, by convention in mol/L. Molecule `C[C@@H]1C[C@@H]([C@H](O)CC2CC(=O)NC(=O)C2)C(=O)[C@@H](C)C1` [cycloheximide] gave a pIC50 in series [3] of 6.30.
